Measurements reported in US20100291591A1, “NOVEL PLATING MEDIA” (priority 2007, published 2010).

Test system: S. aureus
Assay: Tolerance of S. aureus towards ELF phosphate in S. aureus plating media
Assay type: cell-based
Conditions: for Colony Growth: visual inspection relative to media without ELF phosphate
Text: Varying concentrations of ELF® phosphate in S. aureus plating media were used to determine the effect on growth and sensitivity of S. aureus to ELF® phosphate. Colony growth in the presence of ELF® phosphate was compared to colony growth in media without ELF® phosphate.

Question: How did the “Colony Growth” value (ELF phosphate 0.080 g/L) turn out when `O=P(O)(O)O.O=c1[nH]c(-c2cc(Cl)ccc2O)nc2ccc(Cl)cc12` [ELF ® Phosphate, 6-chloro-2-(5-chloro-2-hydroxyphenyl)-quinazolin-4(3H)-one phosphate] was run?
Answer: Its value is “Normal”.

Question: And the “Colony Growth” value (ELF phosphate 0.200 g/L)?
Answer: The value was “Normal”.

Question: What about the “Colony Growth” value (ELF phosphate 0.400 g/L) of the same compound?
Answer: The value was “Normal”.

Question: And the “Colony Growth” value (ELF phosphate 0.600 g/L)?
Answer: Its value is “Normal”.

Question: What about the “effect of concentration on growth” value (S. aureus plating media, 0.080-0.600 g/L) of the same compound?
Answer: Its value is “no effect on growth”.

Question: What about the “inhibition of the growth of S. aureus strains” value (concentrations of 500 mg/L and higher) of the same compound?
Answer: The value was “do not significantly inhibit”.
